Source: patent US10981932B2, “Macrocyclic indole derivatives” (Bayer Aktiengesellschaft, priority 2016, dated 2021)
Where a name gives a salt, the structure may show the parent alone. Read-outs that look alike come from different tables or passages of the source.

Experiments:
BCL-XL = target: T1, BCL-XL (Homo sapiens, UniProt Q07817); test: Protein-protein interaction assay BCL-XL/Bad BH3 peptide (BCL-XL assay), TR-FRET; assay type: binding; conditions: His-BCL-XL / Bad BH3-derived peptide
T1 construct: BCL-XL (amino acids 1-212, C-terminal fused to a hexahistidine (6×His) tag); purchased BPS Bioscience (San Diego, Calif., USA); host or cells: E. coli
Procedure: Protein-Protein Interaction Assay: BCL-XL/Bad BH3 Peptide (BCL-XL Assay)
The dose-dependent inhibition by the compounds described in this invention of the interaction between […] and the BH3 domain of Bad (both human) was determined using a steady state binding competition assay with time-resolved fluorescence energy transfer (TR-FRET) readout. For that purpose BCL-2 (amino acids 1-211, C-terminal fused to a hexahistidine (6×His) tag (SEQ ID NO: 3) and a synthetic Bad BH3-derived peptide of sequence Biotin-PEG2-PEG2-NLWAAQRYGRELRR-NIe-SDEFVDSFKK-amide (SEQ ID NO: 2) served as protein receptor and tracer ligand respectively. The recombinant BCL-2 protein (expressed in E. coli) was purchased from BPS Bioscience (San Diego, Calif., USA). The Bad BH3-derived peptide can be obtained from e.g. Biosyntan (Berlin, Germany).
In the assay 11 different concentrations of each compound (0.1 nM, 0.33 nM, 1.1 nM, 3.8 nM, 13 nM, 44 nM, 0.15 μM, 0.51 μM, 1.7 μM, 5.9 μM and 20 μM) were typically measured as duplicates in the same microtiter plate. For that, 100-fold concentrated DMSO solutions were prepared by serial dilutions (1:3.4) of a 2 mM stock solution in a clear, 384-well microtiter plate (Greiner Bio-One, Frickenhausen, Germany). From there, 50 nl were transferred in a dark test plate (Greiner Bio-One. Frickenhausen, Germany). The assay was initiated by addition of 2 μl of a 2,5-fold concentrated Hs-BCL-XL solution (usually for a 1 nM end concentration in 5 μl reaction volume) in aqueous assay buffer [50 mM Tris/HCl pH 7, 100 mM sodium chloride (NaCl), 50 mM potassium fluoride (KF), 0.005% Tween-20, 2 mM DTT, 0.1% bovine gamma globulin (BGG)] to the compounds in the assay plate. This was followed by a 10-minute incubation step at 22° C. for pre-equilibration of the putative complex between His-BCL-XL and the compounds.
The mixture was incubated in the dark for one hour at 22° C. and then overnight at 4° C. The formation of BCL-XL/Bad complexes was determined by measuring the resonance energy transfer of the anti-His- Eu-cryptate antibody to the streptavidin-XL665 present in the reaction. For that purpose, the fluorescence emission at 620 nm and 665 nm after excitation at 330-350 nm was measured in a TR-FRET measuring instrument, for instance a Rubystar or a Pherastar (both from BMG Lab Technologies, Offenburg, Germany) or a Viewlux (Perkin-Elmer). The ratio of the emission at 665 nm and at 622 nm was used as indicator of the amount of BCL-XL/Bad complexes present.
The resulting data (ratio) were normalized, taking 0% inhibition as the mean value of control measurements (usually 32 data points) where all reagents were included. In this case 50 nl DMSO were used instead of compounds. A 100% inhibition corresponded to the mean value of control measurements (usually 32 data points) where all reagents except BCL-XL were included. IC50 values were determined by regression analysis based on a 4 parameter equation (minimum, maximum, IC50, Hill; Y=Max+(Min−Max)/(1+(X/IC50)^Hill) using the Screener Software (Genedata).

OPM2 = test: Anti-proliferative effect (CellTiter-Glo, 72 h), OPM2; assay type: cell-based; conditions: OPM2 cells, median, read-out: IC50 antiproliferation assay OPM2 [M] (median)
Procedure, shortened: (§1)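 Anti-proliferative activity is derived from ATP-based luminescence (CellTiter-Glo) in cells exposed to compound for 72 h at 37 °C, set against a time zero plate read at seeding.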

MV-4-11 = test: Anti-proliferative effect (CellTiter-Glo, 72 h), MV-4-11; assay type: cell-based; conditions: MV-4-11 cells, median, read-out: IC50 antiproliferation assay MV-4-11 [M] (median)
Procedure, shortened: as §1

T1 sequence (Q07817 1-212): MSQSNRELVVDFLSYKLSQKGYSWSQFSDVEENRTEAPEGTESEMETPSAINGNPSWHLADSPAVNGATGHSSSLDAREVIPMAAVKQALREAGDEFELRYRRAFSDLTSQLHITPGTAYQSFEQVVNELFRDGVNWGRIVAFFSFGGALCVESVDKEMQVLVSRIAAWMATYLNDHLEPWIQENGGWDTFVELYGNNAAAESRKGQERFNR

| Structure (SMILES) | IC50 (BCL-XL) [µM] | IC50 (OPM2; Homo sapiens, OPM-2, 72 h) [M] | IC50 (MV-4-11; Homo sapiens, MV4-11, 72 h) [M] | IC50 (MV-4-11) [M] | IC50 (OPM2) [M] |
| --- | --- | --- | --- | --- | --- |
| Cc1nn(C)c2c1-c1cccc3c(CCCOc4ccc(F)c5ccccc45)c(C(=O)O)n(c13)CCCCOC2 (single isomer, unassigned; enantiomer 2) [Example 023, 7-{3-[(4-fluoronaphthalen-1-yl)oxy]propyl}-1,3-dimethyl-1,10,11,12,13,15-hexahydropyrazolo[4′3′:9,10][1,6]oxazacycloundecino[8,7,6-hi]indole-8-carboxylic acid-N-ethylethanamine Salt (Enantiomer 2)] | > 20 | 6.79e-06 | 2.29e-06 |  |  |
| Cc1nn(C)c2c1-c1cccc3c(CCCOc4cccc5cc(F)ccc45)c(C(=O)O)n(c13)CCCOC2 (single isomer, unassigned; enantiomer 1) [Example 047, 1-{3-[(6-fluoronaphthalen-1-yl)oxy]propyl}-9,11-dimethyl-5,6,8,9-tetrahydro-4H-pyrazolo[4′,3′:8,9][1,5]oxazecino[7,6,5-hi]indole-2-carboxylic acid-N-ethylethanamine Salt (Enantiomer 1)] | > 20 |  |  | 5.38e-06 |  |
| Cc1nn(C)c2c1-c1cccc3c(CCCOc4cccc5ccccc45)c(C(=O)O)n(c13)CCCN(C)C2 (single isomer, unassigned; enantiomer 1) [Example 1-31, 7,9,11-trimethyl-1-[3-(naphthalen-1-yloxy)propyl]-4,5,6,7,8,9-hexahydropyrazolo[3′,4′:7,8][1,5]diazecino[9,10,1-hi]indole-2-carboxylic Acid-N-ethylethanamine Salt (Enantiomer 1)] | > 20 |  | 2.61e-06 |  | 1.05e-05 |
| Cc1ccc2c(CCCOc3cccc4ccccc34)c(C(=O)O)n3c2c1-c1c(nn(C)c1C)CN(C)CCC3 (single isomer, unassigned; enantiomer 2) [Example 074, 7,10,11,12-tetramethyl-1-[3-(naphthalen-1-yloxy)propyl]-4,5,6,7,8,10-hexahydropyrazolo[3′,4′:7,8][1,5]diazecino[9,10,1-hi]indole-2-carboxylic Acid (Enantiomer 2)] | > 20 |  | 7.04e-06 |  |  |
| Cc1c2c(nn1CCN1CCOCC1)CN(C)CCCn1c(C(=O)O)c(CCCOc3cccc4ccccc34)c3cccc-2c31 (single isomer, unassigned; enantiomer 2) [Example 061, 7,11-dimethyl-10-[2-(morpholin-4-yl)ethyl]-1-[3-(naphthalen-1-yloxy)propyl]-4,5,6,7,8,10-hexahydropyrazolo[3′,4′:7,8][1,5]diazecino[9,10,1-hi]indole-2-carboxylic Acid (Enantiomer 2)] | > 20 |  | 8.02e-06 |  | 2.51e-05 |
| CN1CCCn2c(C(=O)O)c(CCCOc3cccc4ccccc34)c3cccc(c32)-c2c(CN3CCOCC3)nn(C)c2C1 (single isomer, unassigned; enantiomer 1) [Example 1-43, (+)-7,9-dimethyl-11-(morpholin-4-ylmethyl)-1-[3-(naphthalen-1-yloxy)propyl]-4,5,6,7,8,9-hexahydropyrazolo[3′,4′:7,8][1,5]diazecino[9,10,1-hi]indole-2-carboxylic Acid (Enantiomer 1)] | > 20 | 1.81e-05 | 6.59e-06 |  |  |
| COCc1nn(C)c2c1-c1cccc3c(CCCOc4cccc5ccccc45)c(C(=O)O)n(c13)CCCN(C)C2 (single isomer, unassigned; enantiomer 2) [Example 1-104, 11-(methoxymethyl)-7,9-dimethyl-1-[3-(1-naphthyloxy)propyl]-4,5,6,7,8,9-hexahydropyrazolo[3′,4′:7,8][1,5]diazecino[9,10,1-hi]indole-2-carboxylic Acid (Enantiomer 2)] | > 20 |  | 4.44e-06 |  |  |
| Cc1c2c(nn1CCN1CCOCC1)CN(C)CCCn1c(C(=O)O)c(CCCOc3cccc4ccccc34)c3cccc-2c31 (single isomer, unassigned; enantiomer 1) [Example 060, 7,11-dimethyl-10-[2-(morpholin-4-yl)ethyl]-1-[3-(naphthalen-1-yloxy)propyl]-4,5,6,7,8,10-hexahydropyrazolo[3′,4′:7,8][1,5]diazecino[9,10,1-hi]indole-2-carboxylic Acid (Enantiomer 1)] | > 20 | 1.27e-05 |  |  |  |
| CCc1c2c(nn1C)CN(C)CCCn1c(C(=O)O)c(CCCOc3cccc4ccccc34)c3ccc(C)c-2c31 (racemic) [Example 144, (rac)-11-ethyl-7,10,12-trimethyl-1-[3-(1-naphthyloxy)propyl]-4,5,6,7,8,10-hexahydropyrazolo[3′,4′:7,8][1,5]diazecino[9,10,1-hi]indole-2-carboxylic Acid] | > 20 | 5.52e-06 |  |  |  |
| CN1CCCn2c(C(=O)O)c(CCCOc3cccc4ccccc34)c3cccc(c32)-c2c(COc3ccc(N4CCN(S(C)(=O)=O)CC4)cc3)nn(C)c2C1 (single isomer, unassigned; enantiomer 1) [Example 1-46, (+)-7,9-dimethyl-11-({4-[4-(methylsulfonyl)piperazin-1-yl]phenoxy}methyl)-1-[3-(naphthalen-1-yloxy)propyl]-4,5,6,7,8,9-hexahydropyrazolo[3′,4′:7,8][1,5]diazecino[9,10,1-hi]indole-2-carboxylic Acid (Enantiomer 1)] | > 20 |  | 7.2e-07 |  | 1.52e-06 |
| CC(C)OCc1nn(C)c2c1-c1cccc3c(CCCOc4cccc5ccccc45)c(C(=O)O)n(c13)CCCCN(C)C2 (single isomer, unassigned) [Example 1-74, 1,14-dimethyl-7-[3-(naphthalen-1-yloxy)propyl]-3-[(propan-2-yloxy)methyl]-10,11,12,13,14,15-hexahydro-1H-pyrazolo[3′,4′:8,9][1,6]diazacycloundecino[10,11,1-hi]indole-8-carboxylic Acid] | > 20 | 1.6e-05 |  |  |  |
| Cc1c2c(nn1C)COCCCCn1c(C(=O)O)c(CCCOc3cccc4ccccc34)c3cccc-2c31 (single isomer, unassigned; enantiomer 1) [Example 1-37, (+)-2,3-dimethyl-7-[3-(naphthalen-1-yloxy)propyl]-2,10,11,12,13,15-hexahydropyrazolo[4′,3′:9,10][1,6]oxazacycloundecino[8,7,6-hi]indole-8-carboxylic Acid (Enantiomer 1)] | > 20 |  | 4.02e-06 |  | 6.53e-06 |
